What was measured:
[1] = molecular target: T1, human Bradykinin B1 receptor (Homo sapiens, UniProt P46663); assay: Calcium flux assay (FLIPR), CHO-K1 cells expressing human Bradykinin B1 receptor, absence of 0.1% BSA (hB1 free IC50); assay type: cell-based; conditions: absence of 0.1% BSA in assay buffer
T1 construct: host or cells: CHO-K1
T1 sequence (P46663 1-353): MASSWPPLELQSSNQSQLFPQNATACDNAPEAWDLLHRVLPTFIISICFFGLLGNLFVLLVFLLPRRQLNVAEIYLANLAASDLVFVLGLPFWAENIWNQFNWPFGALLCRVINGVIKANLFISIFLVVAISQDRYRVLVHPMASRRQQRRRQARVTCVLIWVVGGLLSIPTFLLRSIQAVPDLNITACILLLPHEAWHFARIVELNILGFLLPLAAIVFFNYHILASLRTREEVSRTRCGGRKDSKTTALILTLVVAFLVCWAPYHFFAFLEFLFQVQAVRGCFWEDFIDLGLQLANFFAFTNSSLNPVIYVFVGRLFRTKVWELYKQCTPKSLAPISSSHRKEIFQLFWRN
How it was run: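 Peak FLIPR fluorescence (538 nm) after B1 agonist peptide addition gave IC50s, scaled between DMSO and full block by 20 µM Lys-(Des-Arg-Leu)-Bradykinin. Compounds were preincubated 30 min at 28° C with calcium-dye-loaded CHO-K1 cells expressing human B1, at 8 concentrations in triplicate, 1% DMSO final.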

[2] = molecular target: T2, native human Bradykinin B1 receptor (Homo sapiens, UniProt P46663); assay: Calcium flux assay (FLIPR) with IMR-90 human fibroblasts expressing Bradykinin B1 receptor after IL-1beta induction (hB1 IMR-90); assay type: cell-based; conditions: IMR-90 human fibroblasts after IL-1beta induction, read-out: hB1 IMR90 IC50
T2 construct: which express native human Bradykinin B1 receptor after induction with human IL-1beta; Coriell Institute; host or cells: IMR-90 human foetal lung fibroblasts, induced with human IL-1beta
T2 sequence (P46663 1-353): T1 sequence (P46663 1-353)
Protocol: Calcium Flux Assay (FLIPR) with Human Fibroblasts Expressing Bradykinin B1 Receptor (hB1 IMR-90)
The Calcium flux Assay was carried out utilising IMR-90 human foetal lung fibroblasts (American Type Culture Collection, Rockville, MD; and Coriell Institute, Camden, New Jersey), which express native human Bradykinin B1 receptor after induction with human IL-1beta.
The fibroblasts were cultured in complete growth media comprised of Dulbecco's modified Eagle's medium (DMEM; Sigma) containing 10% foetal bovine serum, 4 mM L-glutamine, and 1% nonessential amino acids. The cells were maintained in a humidified atmosphere with 5% CO2 at 37° C. and were sub-cultured at a ratio of 1:3, every other day.
For the assay, IMR-90 fibroblasts were harvested using TrypLE Express (GIBCO/Invitrogen) and seeded into 384-well plates (Corning Cellbinding Surface, Cat. 3683) at a density of 15000 cells/well. The following day, cells were treated with 0.35 ng/mL human IL-1beta in 10% FBS/MEM for 3 h to up-regulate Bradykinin B1 receptor. Induced cells were loaded with fluorescent calcium indicator by incubation with 2.5 μM Fluo-4/AM (Invitrogen) at 37° C., 5% CO2 for 2 h in the presence of 2.5 mM probenecid in 1% FBS/MEM. […] Compound examples were assayed at 8 concentrations in triplicate. […] A peptide antagonist Lys-(Des-Arg-Leu)-Bradykinin (Bachem, Brackley) at 20 µM was used to determine the full inhibition as control. IC50 values were determined by the same way described for the FLI PR assay with recombinant cells.

Compound	IC50 [1]	IC50 [2]
O=C(O)c1cc(NC(=O)C2(c3ccc(C(F)(F)F)cc3F)CC2)ccc1-c1ccc(C(F)F)nc1 [Example 4, 2-[6-(Difluoromethyl)pyridin-3-yl]-5-[({1-[2-fluoro-4-(trifluoromethyl)phenyl]cyclopropyl}carbonyl)amino]benzoic acid]	110 nM	3400 nM
O=C(O)c1cc(NC(=O)C2(c3ccc(OC(F)(F)F)cc3F)CC2)ccc1-c1ccc(C(F)(F)F)nc1 [Example 7, 5-[({1-[2-Fluoro-4-(trifluoromethoxy)phenyl]cyclopropyl}carbonyl)amino]-2-[6-(trifluoromethyl)pyridin-3-yl]benzoic acid]	200 nM	1100 nM
CCOc1ccc(-c2ccc(NC(=O)C3(c4cccc(Cl)c4)CC3)cc2C(=O)O)cn1 [Example 9, 5-({[1-(3-Chlorophenyl)cyclopropyl]carbonyl}amino)-2-(6-ethoxypyridin-3-yl)benzoic acid]	140 nM	320 nM
CCOc1ccc(-c2ccc(NC(=O)C3(c4ccc(C(F)(F)F)cc4F)CC3)cc2C(=O)O)cn1 [Example 10, 2-(6-Ethoxypyridin-3-yl)-5-[({1-[2-fluoro-4-(trifluoromethyl)phenyl]cyclopropyl}carbonyl)amino]benzoic acid]	18 nM	33 nM
CCOc1ccc(-c2ccc(NC(=O)C3(c4ccc(OC(F)(F)F)cc4F)CC3)cc2C(=O)O)cn1 [Example 11, 2-(6-Ethoxypyridin-3-yl)-5-[({1-[2-fluoro-4-(trifluoromethoxy)phenyl]cyclopropyl}carbonyl)amino]benzoic acid]	19 nM	25 nM
CC(C)(C)c1ccn(-c2ccc(NC(=O)C3(c4ccc(C(F)(F)F)cc4F)CC3)cc2C(=O)O)n1 [Example 12, 2-(3-tert-Butyl-1H-pyrazol-1-yl)-5-[({1-[2-fluoro-4-(trifluoromethyl)phenyl]cyclopropyl}carbonyl)amino]benzoic acid]	1200 nM	2900 nM
CC(C)(C)c1cnn(-c2ccc(NC(=O)C3(c4ccc(OC(F)(F)F)cc4F)CC3)cc2C(=O)O)c1 [Example 13, 2-(4-tert-Butyl-1H-pyrazol-1-yl)-5-[({1-[2-fluoro-4-(trifluoromethoxy)phenyl]cyclopropyl}carbonyl)amino]benzoic acid]	110 nM	310 nM
Cc1ccc(C2(C(=O)Nc3ccc(-n4cc(C(C)(C)C)cn4)c(C(=O)O)c3)CC2)c(F)c1 [Example 14, 2-(4-tert-Butyl-1H-pyrazol-1-yl)-5-({[1-(2-fluoro-4-methylphenyl)cyclopropyl]carbonyl}amino)benzoic acid]	1000 nM	1100 nM
CC(C)(C)c1cnn(-c2ccc(NC(=O)C3(c4ccc(C(F)(F)F)cc4F)CC3)cc2C(=O)O)c1 [Example 17, 2-(4-tert-Butyl-1H-pyrazol-1-yl)-5-[({1-[2-fluoro-4-(trifluoromethyl)phenyl]cyclopropyl}carbonyl)amino]benzoic acid]	230 nM	100 nM
Cc1ccc(-c2ccc(NC(=O)C3(c4ccc(C(F)(F)F)cc4F)CC3)cc2C(=O)O)nc1 [Example 18, 5-[({1-[2-Fluoro-4-(trifluoromethyl)phenyl]cyclopropyl}carbonyl)amino]-2-(5-methylpyridin-2-yl)benzoic acid]	270 nM	830 nM
CC1(Cn2cc(-c3ccc(NC(=O)C4(c5ccc(OC(F)(F)F)cc5F)CC4)cc3C(=O)O)cn2)CC1 [Example 152, 5-[({1-[2-Fluoro-4-(trifluoromethoxy)phenyl]cyclopropyl}carbonyl)amino]-2-{1-[(1-methylcyclopropyl)methyl]-1H-pyrazol-4-yl}benzoic acid]	8.1 nM	
CC(C1CC1)n1cc(-c2ccc(NC(=O)C3(c4ccc(C(F)(F)F)cc4F)CC3)cc2C(=O)O)cn1 (centres unmarked) [Example 153, 2-[1-(1-Cyclopropylethyl)-1H-pyrazol-4-yl]-5-[({1-[2-fluoro-4-(trifluoromethyl)phenyl]cyclopropyl}carbonyl)amino]benzoic acid]	8.7 nM	
COCCn1cc(-c2ccc(NC(=O)C3(c4ccc(C(F)(F)F)cc4F)CC3)cc2C(=O)O)cn1 [Example 155, 5-[({1-[2-Fluoro-4-(trifluoromethyl)phenyl]cyclopropyl}carbonyl)amino]-2-[1-(2-methoxyethyl)-1H-pyrazol-4-yl]benzoic acid]	270 nM	
CCc1ccc(-c2ccc(NC(=O)C3(c4ccc(C(F)(F)F)cc4F)CC3)cc2C(=O)O)cn1 [Example 160, 2-(6-Ethylpyridin-3-yl)-5-[({1-[2-fluoro-4-(trifluoromethyl)phenyl]cyclopropyl}carbonyl)amino]benzoic acid]	21 nM	
CCc1ccc(-c2ccc(NC(=O)C3(c4ccc(OC(F)(F)F)cc4F)CC3)cc2C(=O)O)cn1 [Example 161, 2-(6-Ethylpyridin-3-yl)-5-[({1-[2-fluoro-4-(trifluoromethoxy)phenyl]cyclopropyl}carbonyl)amino]benzoic acid]	15 nM	
CCc1ccc(-c2c(F)cc(NC(=O)C3(c4ccc(C(F)(F)F)cc4F)CC3)cc2C(=O)O)cn1 [Example 162, 2-(6-Ethylpyridin-3-yl)-3-fluoro-5-[({1-[2-fluoro-4-(trifluoromethyl)phenyl]cyclopropyl}carbonyl)amino]benzoic acid]	14 nM	
Cn1ncc2ccc(-c3ccc(NC(=O)C4(c5ccc(OC(F)(F)F)cc5F)CC4)cc3C(=O)O)cc21 [Example 164, 5-[({1-[2-Fluoro-4-(trifluoromethoxy)phenyl]cyclopropyl}carbonyl)amino]-2-(1-methyl-1H-indazol-6-yl)benzoic acid]	120 nM	
Cn1ncc2ccc(-c3c(F)cc(NC(=O)C4(c5ccc(C(F)(F)F)cc5F)CC4)cc3C(=O)O)cc21 [Example 165, 3-Fluoro-5-[({1-[2-fluoro-4-(trifluoromethyl)phenyl]cyclopropyl}carbonyl)amino]-2-(1-methyl-1H-indazol-6-yl)benzoic acid]	63 nM	
Cn1ncc2ccc(-c3c(F)cc(NC(=O)C4(c5ccc(OC(F)(F)F)cc5F)CC4)cc3C(=O)O)cc21 [Example 166, 3-Fluoro-5-[({1-[2-fluoro-4-(trifluoromethoxy)phenyl]cyclopropyl}carbonyl)amino]-2-(1-methyl-1H-indazol-6-yl)benzoic acid]	24 nM	
O=C(O)c1cc(NC(=O)C2(c3ccc(C(F)(F)F)cc3F)CC2)ccc1-c1cnc(C2CCCC2)s1 [Example 167, 2-(2-Cyclopentyl-1,3-thiazol-5-yl)-5-[({1-[2-fluoro-4-(trifluoromethyl)phenyl]cyclopropyl}carbonyl)amino]benzoic acid]	3.4 nM	
O=C(O)c1cc(NC(=O)C2(c3ccc(C(F)(F)F)cc3F)CC2)cc(F)c1-c1cnc(C2CCC2)s1 [Example 168, 2-(2-Cyclobutyl-1,3-thiazol-5-yl)-3-fluoro-5-[({1-[2-fluoro-4-(trifluoromethyl)phenyl]cyclopropyl}carbonyl)amino]benzoic acid]	3.3 nM	
Cc1cnc(-c2ccc(NC(=O)C3(c4ccc(C(F)(F)F)cc4F)CC3)cc2C(=O)O)cn1 [Example 169, 5-[({1-[2-Fluoro-4-(trifluoromethyl)phenyl]cyclopropyl}carbonyl)amino]-2-(5-methylpyrazin-2-yl)benzoic acid]	2100 nM	
O=C(O)c1cc(NC(=O)C2(c3ccc(OC(F)(F)F)cc3F)CC2)ccc1-c1cn(C2CCC2)cn1 [Example 170, 2-(1-Cyclobutyl-1H-imidazol-4-yl)-5-[({1-[2-fluoro-4-(trifluoromethoxy)phenyl]cyclopropyl}carbonyl)amino]benzoic acid]	2100 nM	
COc1ccc(C2(C(=O)Nc3ccc(-c4cnn(C5CCC5)c4)c(C(=O)O)c3)CC2)c(F)c1 [Example 171, 2-(1-Cyclobutyl-1H-pyrazol-4-yl)-5-({[1-(2-fluoro-4-methoxyphenyl)cyclopropyl]carbonyl}amino)benzoic acid]	390 nM	
O=C(O)c1cc(NC(=O)C2(c3ccc(C(F)(F)F)cc3F)CC2)cc(F)c1-c1cnn(CC(F)(F)F)c1 [Example 172, 3-Fluoro-5-[({1-[2-fluoro-4-(trifluoromethyl)phenyl]cyclopropyl}carbonyl)amino]-2-[1-(2,2,2-trifluoroethyl)-1H-pyrazol-4-yl]benzoic acid]	30 nM	

Source: patent publication US12023319B2, “Carboxylic acid aromatic amides” (priority 2016, dated 2024)
